Test results published in paper PMC8751734 (Cell Chemical Biology, 2022).

Target: SARS-CoV-2 PL^pro (Severe acute respiratory syndrome coronavirus 2, UniProt P0DTD1)
Assay type: biochemical

## CN(C)c1ccc2cc3ccc(N(C)C)cc3nc2c1 [acridine orange base]
  dose-dependent inhibition of PL^pro, compared with ACF: less active than the parent compound

## Nc1ccc2cc3ccc(N)cc3nc2c1.O=S(=O)(O)O [acridine-3,6-diamine sulfate]
  dose-dependent inhibition of PL^pro, compared with ACF: less active than the parent compound
